# Legend:
# recEh Trx = target: T1, recEh Trx (Entamoeba histolytica, UniProt C4LYR0); experiment: intact-protein LC-ESI-QTOF-MS after expression with drug; type: cell-based; conditions: covalent; reduced metabolite; drug present during expression in E. coli
# T1 construct: gene EHI_004490; C-terminal His6 tag, Met1 removed, one disulfide, 12,322 Da; pET17b, E. coli BL21(DE3), Ni-NTA
# T1 sequence (C4LYR0 2-103): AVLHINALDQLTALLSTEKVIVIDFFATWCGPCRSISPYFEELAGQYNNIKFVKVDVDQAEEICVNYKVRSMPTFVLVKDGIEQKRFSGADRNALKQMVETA
# recEh TrxR = target: T2, recEh TrxR (Entamoeba histolytica, UniProt C4LW95); experiment: as above; type: cell-based; conditions: covalent; reduced metabolite; drug present during expression in E. coli
# T2 construct: gene EHI_155440; C-terminal His6 tag, pET17b, E. coli BL21(DE3), Ni-NTA; C-terminal native peptide 292-314
# T2 sequence (C4LW95 1-314): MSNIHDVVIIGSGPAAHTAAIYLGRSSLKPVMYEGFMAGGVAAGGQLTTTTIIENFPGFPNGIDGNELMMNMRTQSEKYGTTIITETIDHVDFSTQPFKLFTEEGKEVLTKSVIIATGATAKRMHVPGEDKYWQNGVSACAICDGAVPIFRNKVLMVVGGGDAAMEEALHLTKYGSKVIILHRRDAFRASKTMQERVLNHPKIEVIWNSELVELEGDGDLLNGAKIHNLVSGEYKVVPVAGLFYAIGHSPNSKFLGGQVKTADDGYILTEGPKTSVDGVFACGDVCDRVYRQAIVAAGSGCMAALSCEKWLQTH
substance,measurement,setting,value
tinidazole [compound 2],mass increment,recEh Trx,217 Da
same,mass increment,recEh TrxR,217 Da

# Reference: paper PMC1933457, “Nitroimidazole Action in Entamoeba histolytica: A Central Role for Thioredoxin Reductase” (PLoS Biology, 2007)
